This note sets out measurements from the OligoGym collection.

After the bases stand the sugars from the 5' end (letter, count) and the backbone: PS all phosphorothioate, else s phosphorothioate and o phosphodiester by linkage. Methylation of C is not given here. e = 2'-O-(2-methoxyethyl) (MOE); k = constrained ethyl (cEt); d = 2'-deoxy (DNA); m = 2'-O-methyl

The data set concerns the target HSD17B13. Particulars: ASO, HepaRG.

For the sequence “ATGAGGTTTTGATACC (sugars kkdddddddddkekek, PS)”, the target mRNA inhibition (1 µM) came to 51%.
Consider TGGTAGCTTGCTCACT (sugars k3 d10 k3, PS), for which the target mRNA inhibition is 16% (0.02 µM); 31% (0.078 µM); 48% (0.313 µM); 71% (1 µM); 72% (1.25 µM); 81% (5 µM).
The sequence GAAGTGCTTTTGTGAT (sugars k3 d10 k3, PS) came in with a target mRNA inhibition (1 µM) of 34%.
Still for that read-out and setting: the result for “TGCAGCATTGATTCGA (sugars k3 d1 m1 d8 k3, PS)” reads 65%; that for “GTTTCTTATGTAATAG (sugars k3 d1 m1 d8 k3, PS)”, 25%.
The same measure, in the same setting: the figure for GGGATAAACTGTTCTT (sugars k3 d10 k3, PS) is 47%; for “GATGTAGTGGGAGTCG (sugars k3 d9 k3 e1, PS)” it is 42%.
Sequence “TTAAACCTTCCCTGTG (sugars kkdddddddddkekek, PS)” yielded a target mRNA inhibition (1 µM) of 0%.
The sequence TTTGAACCGTATTCCC (sugars k3 d10 k3, PS) returned a target mRNA inhibition (0.02 µM) of 36%; a target mRNA inhibition (0.078 µM) of 41%; a target mRNA inhibition (0.313 µM) of 57%; a target mRNA inhibition (1 µM) of 69%; a target mRNA inhibition (1.25 µM) of 79%; a target mRNA inhibition (5 µM) of 85%.
CCAATATGCTCTGTCG (sugars k3 d10 k3, PS) returned a target mRNA inhibition (1 µM) of 65%.
Same read-out and setting: the figure for “GAGTCGGTCACCTTTC (sugars kkdddddddddkekek, PS)” is 62%; for CCTAAATTCAAAGACC (sugars k3 d10 k3, PS) it is 64%; for CGTCAAAAACCGTCAA (sugars k3 d10 k3, PS) it is 20%.
Where the note is “1 µM”, CTGCTGCTAGTGCCAA (sugars k3 d10 k3, PS) gave a target mRNA inhibition of 57%.
The same measure, in the same setting: the figure for AGACAGACCAAGTAGC (sugars k3 d10 k3, PS) is 21%; for GATAAGAAGAGAGCTC (sugars k3 d10 k3, PS) it is 36%; for “TGACAATGGTTGATAG (sugars k3 d9 k3 e1, PS)” it is 38%.
Still for that read-out and setting: the figure for CTAGTTGCAATGAGAT (sugars k3 d10 k3, PS) is 65%; for GCTGAGTGGATTACAT (sugars k3 d10 k3, PS) it is 44%.
Still for that read-out and setting: the result for GAACACTTTCACTGGG (sugars k3 d10 k3, PS) reads 0%.
Regarding GATTAATCTTGATGCT (sugars k3 d10 k3, PS), where the note is “1 µM”, the target mRNA inhibition turned out to be 26%.
For AGCTAACTCAGGCTGT (sugars k3 d10 k3, PS), under “1 µM”, the target mRNA inhibition stood at 14%.
Same read-out and setting: the result for “AGTGCCAAACCAATGT (sugars k3 d1 m1 d8 k3, PS)” reads 24%.
Still for that read-out and setting: the result for “AAAATAGAGTCGGTCA (sugars k3 d9 k3 e1, PS)” reads 65%.
Still for that read-out and setting: the figure for CCCTAATGTGTTTTCC (sugars k3 d10 k3, PS) is 25%; for TTTACTCACTTCTGGT (sugars k3 d10 k3, PS) it is 30%.
With GGCTGTAAGAGTCAGT (sugars k3 d10 k3, PS), the target mRNA inhibition runs as follows: (0.02 µM) 0%; (0.078 µM) 0%; (0.313 µM) 0%; (1 µM) 88%; (1.25 µM) 51%; (5 µM) 42%.
AGGCATTAGATGGTAA (sugars k3 d10 k3, PS) returned a target mRNA inhibition (1 µM) of 51%.
The same measure, in the same setting: the figure for TAACGGTGATCAAATG (sugars k3 d10 k3, PS) is 17%; for “TTGCACCGTTTTGGGC (sugars k3 d9 k3 e1, PS)” it is 50%.
Consider “AGAGGATAGTCCATGC (sugars k3 d1 m1 d8 k3, PS)”, for which, where the note is “1 µM”, the target mRNA inhibition worked out at 53%.
The same measure, in the same setting: the figure for TGAGATAAAGCTGCCT (sugars k3 d10 k3, PS) is 63%; for GACCTCTGTGAAAGCC (sugars k3 d10 k3, PS) it is 46%.
The same measure, in the same setting: the figure for “AATGCTACTTGAACAG (sugars k3 d9 k3 e1, PS)” is 50%.
The same measure, in the same setting: the figure for AGTTATTAGAAGTCAG (sugars k3 d10 k3, PS) is 54%; for “GATTAAGCAGAATTGT (sugars k3 d1 m1 d8 k3, PS)” it is 28%; for ATTGTATGAGGTCTCT (sugars k3 d10 k3, PS) it is 49%.
For the setting “1 µM”, GACAATGGTTGCCACT (sugars k3 d10 k3, PS) came in with a target mRNA inhibition of 63%.
Same read-out and setting: the result for CATTAGATGGTAAGGA (sugars k3 d10 k3, PS) reads 32%; that for TTCTGTAGGACTCTGC (sugars k3 d10 k3, PS), 72%.
On the same count and under the same terms, the result for “GAACAATATGGGATGA (sugars k3 d9 k3 e1, PS)” reads 52%; that for ACAGGATAGAGCACAT (sugars k3 d10 k3, PS), 44%.
Same read-out and setting: the result for TCTAGAATTAAGGGCT (sugars k3 d10 k3, PS) reads 45%; that for GATGTTAGGACCCAGT (sugars k3 d10 k3, PS), 64%.
“TTGATCTCTTAGCTGT (sugars kkdddddddddkekek, PS)” registered a target mRNA inhibition (1 µM) of 38%.
As for “TGAACAGTCTTAAACC (sugars k3 d9 k3 e1, PS)”, the target mRNA inhibition (1 µM) was 61%.
For TTTAGAGAGCGATAGA (sugars k3 d10 k3, PS), for the setting “1 µM”, the target mRNA inhibition came to 13%.
The same measure, in the same setting: the result for TCTAAGTTAGCCCCCA (sugars k3 d10 k3, PS) reads 36%.
On the same count and under the same terms, the figure for CCCAACCAAACTTCCA (sugars k3 d10 k3, PS) is 62%; for “TCTTAAGATACCCAGG (sugars k3 d9 k3 e1, PS)” it is 48%; for TTGCAGAAATTCACCT (sugars k3 d10 k3, PS) it is 36%.
Same read-out and setting: the result for CTATAGTAATTGCTAT (sugars k3 d10 k3, PS) reads 0%; that for GAGGTAGCTTTTGTCC (sugars k3 d10 k3, PS), 59%; that for “TTAATGCCACCCTACC (sugars kkdddddddddkekek, PS)”, 11%.
As for CTTGAATGAGTGGTCT (sugars k3 d10 k3, PS), the target mRNA inhibition amounted to 10% (0.02 µM); 16% (0.078 µM); 46% (0.313 µM); 64% (1 µM); 69% (1.25 µM); 88% (5 µM).
For the sequence AGTAGAGAGCATAAGT (sugars k3 d10 k3, PS), the target mRNA inhibition (1 µM) was determined as 52%.
As to “AGTTATTAGAAGTCAG (sugars kkdddddddddkekek, PS)”, the target mRNA inhibition (1 µM) is 42%.
TGATCTTAAGGATCAT (sugars k3 d10 k3, PS): the target mRNA inhibition (1 µM) came out at 0%.
The same measure, in the same setting: the result for GAGGAATGGCTAGGAT (sugars k3 d10 k3, PS) reads 47%.
The same measure, in the same setting: the result for “GTGTAAGCTGAGAGTT (sugars k3 d1 m1 d8 k3, PS)” reads 55%.
In the case of “GCACCGTTTTGGGCTA (sugars k3 d9 k3 e1, PS)”, the target mRNA inhibition (1 µM) came to 45%.
Take TAAGTAGATGGTAAGT (sugars k3 d10 k3, PS): the target mRNA inhibition is, setting by setting: (0.02 µM) 5%; (0.078 µM) 10%; (0.313 µM) 34%; (1 µM) 74%; (1.25 µM) 72%; (5 µM) 85%.
As to “CATCTTAAGATACCCA (sugars kkdddddddddkekek, PS)”, the target mRNA inhibition (1 µM) turned out to be 59%.
As for AGAATAGGAGAGTCTT (sugars k3 d10 k3, PS), the target mRNA inhibition (1 µM) worked out at 64%.
Still for that read-out and setting: the figure for TTTACTGGGATACTAT (sugars k3 d10 k3, PS) is 25%; for “TTGAUATTCTGTGGCA (sugars k3 d1 m1 d8 k3, PS)” it is 60%; for “TAGAATAGTCTTCAGC (sugars k3 d1 m1 d8 k3, PS)” it is 30%.
Same read-out and setting: the figure for TTCCATCTATCAGACT (sugars k3 d10 k3, PS) is 33%; for GCAAGCCAACAGAGAG (sugars k3 d10 k3, PS) it is 52%; for ATTACAGCCTTAGAGT (sugars k3 d10 k3, PS) it is 56%.
Same read-out and setting: the result for GTAAAGTTTGTTAGAG (sugars k3 d10 k3, PS) reads 54%; that for GAGGAGTTAGGGAGCC (sugars k3 d10 k3, PS), 36%; that for GACCAAGGATATATGA (sugars k3 d10 k3, PS), 48%.
AGTTTATATGGATTTG (sugars k3 d10 k3, PS): under “1 µM”, the target mRNA inhibition came to 67%.
On the same count and under the same terms, the figure for “CTCTGGGACCAAGGAT (sugars kkdddddddddkekek, PS)” is 39%; for “AAACAAGAGGATAGTC (sugars k3 d1 m1 d8 k3, PS)” it is 53%.
In the case of GCAGAAATTCACCTTG (sugars k3 d10 k3, PS), the target mRNA inhibition is, setting by setting: (0.02 µM) 5%; (0.078 µM) 19%; (0.313 µM) 26%; (1 µM) 74%; (1.25 µM) 70%; (5 µM) 88%.
As to TAGGCTAAAATGGTCA (sugars k3 d10 k3, PS), the target mRNA inhibition (1 µM) is 59%.
For the setting “1 µM”, TAAACTGTATGCCTCT (sugars k3 d10 k3, PS) showed a target mRNA inhibition of 49%.
The sequence CGCGAGATGATGTTGC (sugars k3 d10 k3, PS) yielded a target mRNA inhibition (1 µM) of 53%.
Same read-out and setting: the figure for “AGGATAGTCCATGCAA (sugars k3 d9 k3 e1, PS)” is 61%; for AAGAATAGGAGAGTCT (sugars k3 d10 k3, PS) it is 70%; for AATGTCTTGGTAATCT (sugars k3 d10 k3, PS) it is 20%.
